Assay results: patent publication EP1858912B1, “COMPOUNDS FOR REDUCING AGGREGATION OF AMYLOID BETA-PEPTIDE” (Alphabeta AB, priority 2005, dated 2012)
Where a SMILES comes first, the peptide text is derived from it. Bridges are numbered along the chain shown (N, C = ends). Roman numbers before positions name the chains, in order. [ ]: non-standard residue; d: D form. Dab = NCC[C@H](N)C(=O)O

What was measured:
[1] = test system: wild type Drosophila (WIII8) that do not express Aβ(1-42); experiment: Longevity in control flies not expressing Aβ; format: in vivo; conditions: 650 µM in the food; control flies not expressing Aβ (Fig. 13)
[2] = test system: Aβ(1-40); experiment: Thioflavin T fluorescence assay of Aβ fibril formation; format: biochemical
Method: Fibril formation of Aβ(1-40) or Aβ(12-28) with and without the presence of the ligands was assessed by the fibril-binding dye thioflavin T (ThT). Solutions containing Aβ peptides in concentrations from about 20 µM to 200 µM without ligand present, or at different peptide/ligand ratios were prepared in 10 mM sodium phosphate buffer, pH 7. The samples were incubated at 37°C under constant gentle shaking. At different time points aliquots were removed and ThT measurements performed using 10 µM ThT in 10 mM sodium phosphate buffer, pH 6, containing 150mMNaCl.
The samples were incubated for 10-15 minutes in the dark before ThT fluorescence measurements were made. Fluorescence was measured using a FarCyte™ (Tecan) instrument with excitation at 440 nm and emission at 480 nm. All samples were measured in duplicates.

[3] = test system: Aβ(1-40); experiment: Tryptophan fluorescence emission of ligand (binding to Aβ); conditions: excitation 280 nm; for emission maximum: sodium phosphate buffer pH 7, 30% (v/v) trifluoroethanol, 20°C
Method: (§1) In these experiments, shifts in fluorescence emission were used to indicate binding. In these experiments, ligand 3 (about 10 µM) was dissolved in sodium phosphate buffer, pH 7, with or without trifluoroethanol present. Fluorescence was measured in a Hitachi F-4000 spectrophotometer, and emission was measured between 300 and 430 nm after excitation at 280 nm.
(§2) When Aβ(1-40) or Aβ(12-28) was added to a solution containing ligand 3, the fluorescence yield was increased (e.g., Fig 7) and the wavelength at maximum emission was shifted from about 348 nm to 344 nm.

[4] = test system: Aβ(12-28); experiment: as above; conditions: after addition of Aβ(12-28); excitation 280 nm
Method: as §1, §2

[5] = test system: Drosophila melanogaster express Aβ1-42 in neurons; experiment: Longevity in Drosophila model of Alzheimer's disease; format: in vivo
Text: A model of Alzheimer's disease was used in which Drosophila melanogaster express Aβ1-42 in neurons (Crowther et al., 2005, Neuroscience 132:123-135).

[6] = test system: Aβ(12-28); experiment: Circular dichroism spectroscopy of Aβ secondary structure; format: biochemical; conditions: 1:1 molar ratio, sodium phosphate buffer pH 7, 30% (v/v) trifluoroethanol, 20°C; compared with Aβ(12-28) alone; ligand spectrum subtracted
Method: Compounds described herein can be tested for their ability to affect the secondary structure of an Aβ peptide. As an example, addition of ligands to Aβ(1-40) or Aβ(12-28) in solution increased the helical content of Aβ peptides, as measured by circular dichroism (CD) spectroscopy. This is evidenced by a decrease in molar ellipticity at 208 and 222 nm, and an increase in molar ellipticity at 190-195 nm (an example is shown in Fig. 6). In these experiments, Aβ peptides (concentration about 20 µM to 100 µM) were mixed with ligands in ligand/Aβ molar ratios ranging between 1 and 10. The measurements were performed in phosphate buffer (as described below for thioflavin T measurements) or in phosphate buffer containing 30% trifluoroethanol. The samples were incubated at 37°C with or without shaking before measurements. CD measurements were performed at room temperature in a Jasco 810 instrument using a 1 mm cuvette (sample volume 200-300 µl). For each sample, three spectra were accumulated. Spectra were measured between 260 and 185 nm, and the spectra of buffer and ligands alone were subtracted from the spectra of the mixtures. Molar ellipticity values were calculated using the recorded spectra and the peptide concentrations, and expressed in kdeg x cm^2/dmol. […]

- fluorescence yield ([3]; after addition of Aβ(1-40)): increased
- wavelength at maximum emission ([3]; after addition of Aβ(1-40)): 344 nm
- emission maximum ([3]; complex with Aβ(1-40), 1:1 molar ratio): 344 nm
- wavelength at maximum emission ([3]; ligand about 10 µM before addition of Aβ): about 348 nm
- emission maximum ([3]; ligand only): 348 nm
- fluorescence yield [4]: increased
- wavelength at maximum emission [4]: 344 nm
Structure (SMILES): CC(=O)N[C@H](CCC(=O)O)C(=O)N[C@@H](CCNC(=O)[C@@H](Cc1c[nH]c2ccccc12)NC(=O)[C@@H](N)CCCNC(=N)N)C(=O)O [ligand 3, Ac-D-Glu-Dab(Arg-D-Trp)] (I: H-Arg-[dW] / II: Ac-[dE]-[Dab]-OH; amide I:C-II:2)
- effects on mean survival (longevity) [1]: absence of a statistically significant difference
- Aβ(1-40) fibril formation, as measured by ThT binding ([2]; 1:1 ligand/peptide molar ratio, 1.5 hours at 37°C (Fig. 9)): effective in reducing Aβ(1-40) fibril formation
- ThT fluorescence induced by Aβ(1-40) ([2]; different periods of incubation at 37°C, 10 mM sodium phosphate pH 7, 5:1 or 10:1 ligand/Aβ molar ratio (Fig. 8)): practically abolished
- ThT fluorescence ([2]; ligand/Aβ ratio 5, compared with 1:1, 1.5 hours at 37°C (Fig. 9)): further reduction of ThT fluorescence
- ThT fluorescence ([2]; ligand/Aβ ratio 10, 1.5 hours at 37°C (Fig. 9)): approximately the same result as a ligand/Aβ ratio of 5
- mean survival time ([5]; 134 µM in the food, 29°C and high humidity (Fig. 12)): increased the mean survival time
- mean survival time ([5]; 650 µM in the food, 28°C and low humidity, p=0.0035 (Fig. 11)): prolonged mean survival time
- longevity ([5]; fed from the larval stage, compared to untreated flies, two different experimental conditions): significant increase in longevity
- circular dichroism spectra [6]: lowest value at 222 nm and highest value at 195 nm
